Experimental data as given in the supplement of paper PMC10307832.

Tests used:
Experiment in all cases: relative viability (nuclei count vs DMSO), 5 days (fraction); higher = more cells survive
Cediranib + Palbociclib = compound: COc1cc2c(Oc3ccc4[nH]c(C)cc4c3F)ncnc2cc1OCCCN1CCCC1 [Cediranib] + CC(=O)c1c(C)c2cnc(Nc3ccc(N4CCNCC4)cn3)nc2n(C2CCCC2)c1=O [Palbociclib] (partner 0.5 µM)
Summary of the method: (§1)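 Lung cancer cell lines, seeded in 1536-well plates, were treated the following day by pin tool with a single drug or with five library-drug doses (not always all listed) in √10 steps on top of a fixed anchor-drug dose. Cells were fixed and nuclei stained in one step after 5 days, and nuclei were counted. Relative viability is the nuclei count for treated wells divided by that for vehicle wells, reported as medians of duplicate plates.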

Cediranib + Decitabine = compound: COc1cc2c(Oc3ccc4[nH]c(C)cc4c3F)ncnc2cc1OCCCN1CCCC1 [Cediranib] + Nc1ncn([C@H]2C[C@H](O)[C@@H](CO)O2)c(=O)n1 [Decitabine] (partner 2 µM)
Summary of the method: as §1

Decitabine + Foretinib = compound: Nc1ncn([C@H]2C[C@H](O)[C@@H](CO)O2)c(=O)n1 [Decitabine] + COc1cc2c(Oc3ccc(NC(=O)C4(C(=O)Nc5ccc(F)cc5)CC4)cc3F)ccnc2cc1OCCCN1CCOCC1 [Foretinib] (partner 0.25 µM)
Summary of the method: as §1

[1] = compound: O=C(C[C@H]1NCCC[C@@H]1O)Cn1cnc2cc(Br)c(Cl)cc2c1=O (racemic) [Halofuginone] + C[C@]1(O)C[C@@H](c2nc(-c3ccc4ccc(-c5ccccc5)nc4c3)c3c(N)nccn32)C1 [Linsitinib] (partner 1 µM)
Summary of the method: as §1

| Cell Line | relative viability (Cediranib + Palbociclib; first compound 0.04 µM) | relative viability (Cediranib + Palbociclib; first compound 0.1265 µM) | relative viability (Cediranib + Palbociclib; first compound 0.4 µM) | relative viability (Cediranib + Palbociclib; first compound 1.265 µM) | relative viability (Cediranib + Palbociclib; first compound 4 µM) | relative viability (Cediranib + Decitabine; first compound 0.04 µM) | relative viability (Cediranib + Decitabine; first compound 0.1265 µM) | relative viability (Cediranib + Decitabine; first compound 0.4 µM) | relative viability (Cediranib + Decitabine; first compound 1.265 µM) | relative viability (Cediranib + Decitabine; first compound 4 µM) | relative viability (Decitabine + Foretinib; first compound 0.04 µM) | relative viability (Decitabine + Foretinib; first compound 0.1265 µM) | relative viability (Decitabine + Foretinib; first compound 0.4 µM) | relative viability (Decitabine + Foretinib; first compound 1.265 µM) | relative viability (Decitabine + Foretinib; first compound 4 µM) | relative viability ([1]; first compound 0.001 µM) | relative viability ([1]; first compound 0.003162 µM) | relative viability ([1]; first compound 0.01 µM) | relative viability ([1]; first compound 0.03162 µM) | relative viability ([1]; first compound 0.1 µM) |
| --- | --- | --- | --- | --- | --- | --- | --- | --- | --- | --- | --- | --- | --- | --- | --- | --- | --- | --- | --- | --- |
| NCI-H1437 | 0.32 | 0.305 | 0.291 | 0.349 | 0.335 | 0.67 | 0.602 | 0.621 | 0.562 | 0.639 | 1.11 | 0.881 | 0.657 | 0.468 | 0.391 | 1.05 | 1.13 | 0.988 | 0.828 | 0.208 |
| NCI-H1651 | 0.534 | 0.551 | 0.499 | 0.523 | 0.527 | 0.482 | 0.538 | 0.669 | 0.542 | 0.652 | 0.685 | 0.942 | 0.783 | 0.647 | 0.526 | 1.07 | 0.978 | 0.994 | 0.6 | 0.332 |
| NCI-H1666 | 0.681 | 0.61 | 0.636 | 0.644 | 0.658 | 0.738 | 0.624 | 0.728 | 0.87 | 0.727 | 0.91 | 0.86 | 0.776 | 0.662 | 0.68 | 1.03 | 0.957 | 0.779 | 0.842 | 0.703 |
| NCI-H1734 | 0.322 | 0.348 | 0.383 | 0.356 | 0.305 | 0.531 | 0.512 | 0.551 | 0.497 | 0.536 | 0.765 | 0.685 | 0.651 | 0.474 | 0.339 | 0.904 | 0.947 | 0.888 | 0.938 | 0.416 |
| NCI-H1755 | 0.441 | 0.429 | 0.436 | 0.441 | 0.422 | 0.71 | 0.66 | 0.753 | 0.707 | 0.724 | 0.889 | 0.886 | 0.804 | 0.565 | 0.447 | 1.06 | 1.02 | 0.971 | 0.985 | 0.768 |
| NCI-H1793 | 0.306 | 0.277 | 0.3 | 0.271 | 0.311 | 0.51 | 0.477 | 0.478 | 0.478 | 0.506 | 0.631 | 0.641 | 0.533 | 0.351 | 0.406 | 0.985 | 0.962 | 0.822 | 0.883 | 0.398 |
| NCI-H1915 | 0.549 | 0.491 | 0.506 | 0.512 | 0.553 | 0.259 | 0.248 | 0.259 | 0.26 | 0.28 | 0.534 | 0.396 | 0.326 | 0.314 | 0.326 | 1.05 | 1.1 | 1 | 1.06 | 0.974 |
| NCI-H1944 | 0.331 | 0.386 | 0.315 | 0.346 | 0.313 | 0.443 | 0.396 | 0.422 | 0.443 | 0.45 | 0.766 | 0.752 | 0.567 | 0.444 | 0.396 | 1.2 | 1.1 | 1.22 | 1.13 | 0.936 |
| NCI-H1975 | 0.62 | 0.608 | 0.491 | 0.578 | 0.547 | 0.638 | 0.432 | 0.403 | 0.351 | 0.42 | 0.63 | 0.546 | 0.265 | 0.317 | 0.31 | 1.09 | 0.924 | 0.976 | 0.497 | 0.15 |
| NCI-H1993 |  | 0.634 | 0.64 | 0.656 | 0.637 |  | 0.629 | 0.666 | 0.518 | 0.651 | 0.746 | 0.693 | 0.824 | 0.742 | 0.771 | 0.742 | 0.685 | 0.72 | 0.801 | 0.544 |
| NCI-H2009 | 0.308 | 0.188 | 0.19 | 0.0997 | 0.211 | 0.4 | 0.366 | 0.369 | 0.333 | 0.417 | 1.21 | 0.808 | 0.627 | 0.494 | 0.438 | 1.27 | 1.12 | 1.19 | 0.872 | 0.81 |
| NCI-H2023 | 0.398 | 0.344 | 0.359 | 0.413 | 0.397 | 0.212 | 0.229 | 0.229 | 0.234 | 0.266 | 0.649 | 0.617 | 0.369 | 0.265 | 0.189 | 0.76 | 0.535 | 0.706 | 0.232 | 0.157 |
| NCI-H2085 | 0.5 | 0.48 | 0.469 | 0.473 | 0.466 | 0.55 | 0.515 | 0.537 | 0.526 | 0.541 | 0.695 | 0.556 | 0.407 | 0.457 | 0.426 | 0.863 | 1.01 | 0.864 | 0.898 | 0.627 |
| NCI-H2087 | 0.243 | 0.24 | 0.249 | 0.182 | 0.224 | 0.22 | 0.35 | 0.308 | 0.328 | 0.276 | 0.558 | 0.624 | 0.393 | 0.317 | 0.269 | 1.01 | 1.04 | 0.945 | 0.98 | 0.833 |
| NCI-H2126 | 0.349 | 0.358 | 0.359 | 0.349 | 0.314 | 0.589 | 0.573 | 0.58 | 0.561 | 0.602 | 1.05 | 0.929 | 0.607 | 0.583 | 0.466 | 0.73 | 0.671 | 0.673 | 0.71 | 0.648 |
| NCI-H2347 | 0.497 | 0.417 | 0.4 | 0.4 | 0.417 | 0.671 | 0.703 | 0.617 | 0.659 | 0.568 |  | 0.857 | 0.454 | 0.683 | 0.819 | 1.06 | 1.05 | 0.902 | 1.04 | 0.777 |
